Results on 77 compounds are retold here after the METLIN SMRT retention time set (Domingo-Almenara et al. 2019).

A short description of this data set: gradient 5% acetonitrile 3 min, to 50% in 2 min, to 85% in 15 min, held 3 min, 100 µL/min. Particulars: column: Zorbax Extend-C18 2.1 x 50 mm; eluents: water / acetonitrile, 0.1% formic acid. In a few lines:
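Retention times of pure standards were taken from adduct peaks that were selected by computer and manually inspected. Over 3 months, mixtures of ~100 molecules were run by HPLC–quadrupole time-of-flight mass spectrometry in positive and negative ionization mode. The Zorbax Extend-C18 column (2.1 × 50 mm, 1.8 μm) ran at 100 μL/min in water and acetonitrile, each containing 0.1% formic acid, with 40 μL dead volume and 900 μL dwell volume.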
In the case of `COc1ccc(-c2noc(-c3nc(Cc4cccc(F)c4)no3)n2)cc1`, the RP-LC retention time is 1170 s.

Regarding `Cc1ccc(F)c(NS(=O)(=O)c2cc(-c3nc(C(C)(C)C)cs3)cs2)c1`, the RP-LC retention time was 1260 s.

Compound `COc1ccc(OC)c(NC(=O)C2(c3cccs3)CCOCC2)c1` displayed an RP-LC retention time of 917 s.

`O=C(O)c1ccc(Nc2c(-c3ccccc3)nc3cnccn23)cc1`: the RP-LC retention time is 697 s.

On to `Cc1oc(-c2[nH]ncc2C(=O)N2CCOCC2)cc1S(=O)(=O)N1CCCC1`, for which the RP-LC retention time came to 616 s.

Compound `Cc1cc2nc(C(F)(F)F)c(=O)n(C(C)C(=O)NCCN(C)C)c2cc1C` (configuration not stated) showed an RP-LC retention time of 695 s.

`COCCN1C(=O)CCc2cc(NS(=O)(=O)c3ccc(C)c(F)c3)ccc21` came in with an RP-LC retention time of 802 s.

In turn, `Cc1cc(F)ccc1NC(=O)C1CCCN1S(=O)(=O)c1cc2c(cc1Cl)NC(=O)CO2` (configuration not stated) showed an RP-LC retention time of 745 s.

Take `O=C(c1ccco1)N1CCC2(CC1)NC(=O)N(Cc1ccc(F)cc1)C2=O`: the RP-LC retention time turned out to be 692 s.

The compound `Oc1ccc(C2NCCc3c2[nH]c2ccc(Cl)cc32)cc1O` (configuration not stated) yielded an RP-LC retention time of 620 s.

In turn, `COc1ccc(-c2nc(CNC(=O)c3ccc(-n4cccn4)nn3)cs2)cc1` displayed an RP-LC retention time of 855 s.

With `O=C(Cn1cnc2cc3c(cc21)OCCO3)Nc1ccc2c(c1)OCCO2`, the RP-LC retention time is 623 s.

For `Cc1cc(C)cc(NS(=O)(=O)c2cc3n(c2)CCN(C(C)C)C3=O)c1`, the RP-LC retention time was determined as 808 s.

Take `CC(C)Cn1c(=O)c2cc(C(=O)NC(C)c3ccccc3)nn2c2ccccc21` (configuration not stated): the RP-LC retention time worked out at 1090 s.

In the case of `Cn1nc(C(=O)N2CCCCC2)c2c1CCN(C(=O)Nc1ccc3c(c1)OCO3)C2`, the RP-LC retention time came out at 717 s.

In the case of `CCc1ccccc1NC(=O)c1c(O)c2cccnc2n(-c2cccc(F)c2)c1=O`, the RP-LC retention time is 1320 s.

For `CCOC(=O)c1cnc2nc(C)ccc2c1Nc1ccc(Cl)cc1F`, the RP-LC retention time was 758 s.

The compound `Cn1nc2n(c1=O)CCN(C(=O)c1ccc3c(c1)OCO3)CC2` returned an RP-LC retention time of 610 s.

Regarding `Cc1noc(C)c1-c1ccc(S(=O)(=O)NCc2cccs2)cc1`, the RP-LC retention time worked out at 869 s.

The compound `COc1ccc(N2CCN(C(=O)Cn3ncc4c(c3=O)N(C)C(=O)CS4)CC2)cc1` returned an RP-LC retention time of 635 s.

In the case of `CC(C)(C)c1noc(-c2ccnc(-n3cnc(C(=O)N4CCCCCC4)c3)c2)n1`, the RP-LC retention time was 998 s.

As to `O=C(C1CCN(c2cnn(Cc3ccccc3)c(=O)c2)CC1)N1CCOCC1`, the RP-LC retention time stood at 661 s.

`CCN1CCn2cc(S(=O)(=O)N3CCN(c4ccccc4Cl)CC3)cc2C1=O` displayed an RP-LC retention time of 892 s.

`CCNC(=O)N1CC(C(=O)N(C)C)C2(CCOCC2)C1` (configuration not stated) came in with an RP-LC retention time of 520 s.

`Cc1cc(C)cc(C(=O)N2CCC3(CC2)NC(=O)c2cc(F)ccc2N3C)c1` returned an RP-LC retention time of 787 s.

As to `COc1ccc(-c2nc3cc(C)ccn3c2NC(=O)C(C)(C)Oc2ccc(Cl)cc2)cc1`, the RP-LC retention time worked out at 828 s.

`COC(=O)c1ccc(NC(=O)c2[nH]c3cc(C)sc3c2CN(C)C)cc1` gave an RP-LC retention time of 670 s.

As to `O=C(NCCCN1CCOCC1)C1CCCN(c2ccc(=O)n(-c3cccc(Cl)c3)n2)C1` (configuration not stated), the RP-LC retention time turned out to be 610 s.

As for `CNC(=O)C1CN(S(=O)(=O)c2cccc(F)c2)CC12CCCC2` (configuration not stated), the RP-LC retention time amounted to 778 s.

Compound `Cc1cc(Cl)ccc1OCc1nc2c3ccccc3ncn2n1` came in with an RP-LC retention time of 1060 s.

`Cc1ccc(NS(=O)(=O)c2cc(-c3[nH]ncc3C(=O)N(C)C)oc2C)c(Cl)c1`: the RP-LC retention time came out at 707 s.

As for `O=C(Cn1cnc(-c2noc(-c3ccc(F)cc3)n2)c1)NC1CCCCC1`, the RP-LC retention time turned out to be 862 s.

The compound `Cc1cnc(C(=O)N[C@@H]2CCC[C@@H]2C(=O)N2CCSCC2)cn1` had an RP-LC retention time of 633 s.

For the compound `O=C1COc2ccc(S(=O)(=O)N3CCC(C(=O)N4CCOCC4)CC3)cc2N1`, the RP-LC retention time amounted to 620 s.

Compound `CCOC(=O)C1=C(CNc2ccc(C)c(Cl)c2)NC(=O)NC1c1ccc2c(c1)OCO2` (configuration not stated) yielded an RP-LC retention time of 897 s.

In turn, `COc1cc(OC)cc(-c2noc(-c3nn(-c4ccc(C)cc4)ccc3=O)n2)c1` yielded an RP-LC retention time of 916 s.

For `CCN1C(=O)c2ccccc2Oc2ccc(C(=O)N3CCN(c4cc(C)ccc4C)CC3)cc21`, the RP-LC retention time was 1190 s.

`O=C(Nc1ccccc1)N1CCc2[nH]cnc2C1c1ccccc1` (configuration not stated) showed an RP-LC retention time of 625 s.

In turn, `CCn1cc(C(=O)Nc2ccc(F)c(F)c2)c(S(=O)(=O)N2CCSCC2)n1` gave an RP-LC retention time of 1010 s.

For the compound `O=C(CN1C(=O)CSc2cccn2-c2ccccc21)NCc1ccc(F)cc1`, the RP-LC retention time was 866 s.

As for `Cc1cc(C)n2nc(SCC(=O)NC3CCCC(C)C3C)nc2n1` (configuration not stated), the RP-LC retention time was found to be 776 s.

In turn, `COCc1cc2nn(CC(=O)Nc3ccc(OC)c(F)c3)c(=O)n2c(-c2ccccc2)n1` came in with an RP-LC retention time of 797 s.

The compound `COc1cc(NS(=O)(=O)c2ccc(NC(=O)c3ccc(Cl)cc3)cc2)nc(OC)n1` came in with an RP-LC retention time of 868 s.

Turning to `C[C@H](CSC(=O)c1ccccc1)C(=O)N1c2ccccc2C[C@H]1C(=O)O`, the RP-LC retention time came out at 877 s.

Compound `Cc1ccc(-c2noc(Cn3ccn(-c4ccccc4)c(=O)c3=O)n2)cc1` showed an RP-LC retention time of 844 s.

With `O=S(=O)(c1ccc(-c2nnc(C3CCCC3)o2)o1)N1CCCCCC1`, the RP-LC retention time turned out to be 1060 s.

As to `O=C(Nc1cccc(Br)c1)C1CCCN(c2ncc(-c3ccc(F)cc3)cn2)C1` (configuration not stated), the RP-LC retention time was 1250 s.

`CCN1C(=O)C(C(=O)Nc2cccc(C)c2)C2CC1(C)Oc1ccccc12` (configuration not stated) registered an RP-LC retention time of 1060 s.

With `Cc1ccc(Cl)cc1NC(=O)N1CCC(N2CCN(Cc3ccccn3)C(=O)C2=O)CC1`, the RP-LC retention time was found to be 647 s.

`CCOC(=O)c1nc(N(CC)c2ccc(OC)cc2)c2ccccc2n1` registered an RP-LC retention time of 941 s.

With `CN(C)C(CNC(=O)Cn1c(=O)oc2ccccc21)c1cn(C)c2ccccc12` (configuration not stated), the RP-LC retention time worked out at 575 s.

Take `CCc1nc(-c2ccnc(N3CCOCC3)c2)no1`: the RP-LC retention time was 678 s.

`CCNC(=O)C1CCCN(c2nc3ncn(CC(=O)Nc4cccc(F)c4)c(=O)c3s2)C1` (configuration not stated) gave an RP-LC retention time of 676 s.

In the case of `O=C(c1cc(Cl)ccc1F)N1CCN(C(=O)c2nnn3c2COC(c2ccccc2)C3)CC1` (configuration not stated), the RP-LC retention time was found to be 909 s.

The compound `CN(C)c1nc2cc(C(=O)N3CCCC3)sc2n1-c1ccccc1` yielded an RP-LC retention time of 657 s.

Regarding `NS(=O)(=O)c1ccc(NC(=O)CN2C(=O)S/C(=C\C=C\c3ccccc3)C2=O)cc1`, the RP-LC retention time stood at 808 s.

`O=C(Cn1cccc(-c2nc(-c3ccccc3)no2)c1=O)Nc1ccc(Cl)c(C(F)(F)F)c1` returned an RP-LC retention time of 1040 s.

As for `Cc1ccc(CNC(=O)c2cn(-c3ccc(NC(=O)C(C)C)cn3)cn2)cc1`, the RP-LC retention time is 793 s.

With `Cc1ccc(-c2noc(C(=O)N3CCCC3)n2)cc1S(=O)(=O)N1CCN(c2ccccn2)CC1`, the RP-LC retention time is 700 s.

The compound `CC(C)[C@@H](CN1CC[C@@](C)(c2cccc(O)c2)[C@@H](C)C1)NC(=O)[C@H]1Cc2ccc(O)cc2CN1` displayed an RP-LC retention time of 555 s.

`COc1ccc(NC(=O)N2CCCC2c2nc(-c3ccc(F)cc3F)no2)cc1F` (configuration not stated): the RP-LC retention time was found to be 940 s.

For the compound `Cc1sc(NC(=O)c2ccc(S(=O)(=O)N(C)C)cc2)nc1-c1ccc2c(c1)N(C)C(=O)CO2`, the RP-LC retention time amounted to 938 s.

`CSc1cccc(NC(=O)CSc2nccc(N3CCN(c4cc(C)ccc4C)CC3)n2)c1` had an RP-LC retention time of 938 s.

Turning to `COc1cccc(OC)c1C(=O)Nc1ccc2c(c1)CCCN2C(=O)C1CC1`, the RP-LC retention time turned out to be 722 s.

The compound `O=C1CCc2cc(NC(=O)c3cncc(Br)c3)ccc2N1` had an RP-LC retention time of 649 s.

For `O=C(c1[nH]nc2c1CCc1ccccc1-2)N1CCC(c2noc(-c3cccnc3)n2)C1` (configuration not stated), the RP-LC retention time worked out at 776 s.

Take `CCN1CCC2(CC1)OC(=O)C(C)=C2C(=O)NCCc1ccccc1`: the RP-LC retention time came to 617 s.

In the case of `O=S(=O)(Nc1ccc(Br)cn1)c1ccccc1`, the RP-LC retention time was determined as 780 s.

`CCOc1cccc(CNC(=O)C2CCc3nc(N4CCCCC4)ncc3C2)c1` (configuration not stated) returned an RP-LC retention time of 777 s.

`CCOC(=O)Cc1csc(NC(=O)CNC(=O)c2c[nH]c3ccccc23)n1` gave an RP-LC retention time of 670 s.

The compound `Cc1ccc(NC(=O)Cc2cccc3ccccc23)cc1N1CCCC1=O` had an RP-LC retention time of 753 s.

Compound `c1cncc(-c2nc(-c3ccnc(N4CCCC4)c3)no2)c1` showed an RP-LC retention time of 590 s.

`CCc1nn2c(CNS(=O)(=O)Cc3cccc(F)c3)c(-c3ccccc3)nc2s1`: the RP-LC retention time is 972 s.

The compound `NC(=O)c1ccc(-c2nc(-c3ccc4c(c3)OCO4)c(-c3ccccn3)[nH]2)cc1` yielded an RP-LC retention time of 647 s.

For the compound `CCn1c(=O)c(C)nc2cc(-c3noc(-c4ccc(Br)cc4)n3)ccc21`, the RP-LC retention time was 1270 s.

`CCCCN(C)S(=O)(=O)c1c(C)nn(-c2ccc(-c3ccccc3)nn2)c1C` showed an RP-LC retention time of 1160 s.

`COc1ccc(N2C(=O)C3N=NN(Cc4nc(-c5ccc6c(c5)OCO6)no4)C3C2=O)cc1OC` (configuration not stated) displayed an RP-LC retention time of 834 s.
